The record followed here is patent US10689383B2, “Optionally fused heterocyclyl-substituted derivatives of pyrimidine useful for the treatment of inflammatory, metabolic, oncologic and autoimmune diseases” (NUEVOLUTION A/S, priority 2014, dated 2020).

Assay [1] has as its target T1, human RORγt (Ligand Binding Domain) (Homo sapiens, UniProt P51449).
T1 construct: purchased Crelux (Planegg, Germany) batch no PC5032-1
T1 sequence (P51449 269-508 limits assumed): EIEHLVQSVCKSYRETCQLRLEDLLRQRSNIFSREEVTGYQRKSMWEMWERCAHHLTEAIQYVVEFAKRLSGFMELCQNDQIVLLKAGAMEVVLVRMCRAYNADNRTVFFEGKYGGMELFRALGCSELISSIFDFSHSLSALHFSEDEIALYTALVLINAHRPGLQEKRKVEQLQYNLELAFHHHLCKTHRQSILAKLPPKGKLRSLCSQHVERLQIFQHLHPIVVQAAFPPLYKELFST
As to the kind of experiment: Fluorescence Polarization (FP) Assay. The conditions noted are these: Fluorescence Polarization (FP) Assay; values given as upper bounds of activity ranges; read-out: FP activity range. The essentials:
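In vitro FP binding assay monitoring ligand binding within the ligand binding pocket. Probe is a TAMRA-labelled RORγt ligand (MW 910 g/mole); DMSO served as negative control.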
Background: Polarisation of emitted light reports the rotation of a fluorescent probe.

In assay [2] the target is T2, yeast Gal4-DNA binding domain fused to the ligand binding domain of human RORγ (Homo sapiens, UniProt P51449).
T2 construct: host or cells: HEK293t
T2 sequence (P51449 269-508 limits assumed): T1 sequence (P51449 269-508 limits assumed)
As to the kind of experiment: RORγ Reporter Assay (Gal4). It is filed as cell-based. As to conditions: values given as lower bounds of ranges; for Gal4 activity range @ 0.1 μM (% inhibition): RORγ Reporter Assay (Gal4) at 0.1 μM; for Gal4 activity range @ 1 μM (% inhibition): RORγ Reporter Assay (Gal4) at 1 μM. Put shortly: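 HEK293t reporter cells expressing the hybrid, with Gal4-UAS-driven firefly luciferase, treated in triplicate with compound at 1,000 nM and 100 nM (0.1% DMSO) in medium with 10% charcoal-stripped FBS for 24 h at 37 °C. Luminescence read; percent reduction of RLU calculated relative to vehicle.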
For orientation: A reporter such as luciferase makes a cellular process visible.

For assay [3], the system named is Th17 cells. As to the kind of experiment: Th17 Assay (IL-17 levels in supernatants by ELISA). The format is cell-based. As to conditions: Homo sapiens; read-out: Th17 activity range @ 1 μM (% inhibition). The procedure:
The activity of the compounds was evaluated using a Fluorescence Polarization (FP) Assay and, in most cases, a Th17 Assay and/or RORγ Reporter assay (also referred to as Gal4 assay). The FP assay is an in vitro assay monitoring binding within the ligand binding pocket. The RORγ and the Th17 assays are both cell-based assays monitoring functional activity of the compound assayed.
Human peripheral blood mononuclear cells (PBMCs) were isolated from buffy coats of healthy human volunteers using the Ficoll paque PLUS kit (GE Healthcare, cat no 17-1440-02), as instructed by the manufacturer. Naive CD4+ T cells were isolated with Naive CD4+ T cell kit, human (Milteny Biotec, cat no 130-094-131). The following modifications were made to the manufacturer's protocol: 1) Incubation with Biotin-Antibody Cocktail and Anti-Biotin MicroBeads was prolonged to 30 minutes, and 2) Cells were washed with 40 mL of Miltenyi buffer. Differentiation of Th17 cells in anti-CD3 (BD Pharmingen, 5 μg/ml) coated 96-well plates (400,000 cells/well, 160 μl RPMI 1640+10% Fetal Bovine Serum) containing 5 μg/ml anti-CD28 (BD Pharmingen), 10 ng/ml IL-2 (R&D Systems), 2.5 ng/ml TGFβ-1 (R&D Systems), 20 ng/ml IL-1β (R&D Systems), 20 ng/ml IL-6 (R&D Systems), 30 ng/ml IL-23 (R&D Systems), 2.5 μg/ml anti-IL-4 (R&D Systems) and 1 μg/ml anti-IFNγ (R&D Systems) and with test compound during the entire differentiation (or vehicle, 0.1% DMSO for control). Test compounds were tested in triplicates, diluted 1000-fold in medium (final DMSO concentration is 0.1%). Incubated for seven days at 37° C., 5% CO2, 95% humidity, and 2-fluoro-4′-[[4-(4-pyridinylmethyl)-1-piperazinyl]methyl]-α,α-bis(trifluoromethyl)-[1,1′-biphenyl]-4-methanol (SR2211 Calbiochem, Cat. No. 557353) was used as positive control. As negative control, cells were differentiated into Th0 using 5 μg/ml anti-CD28 (BD Pharmingen), 10 ng/ml IL-2 (R&D Systems), 2 μg/ml anti-IL4 (R&D Systems) and 2 μg/ml anti-IFNγ (R&D Systems) are negative control. IL-17 levels in supernatants were measured with ELISA (R&D Systems).
Background: An ELISA detects its analyte on a solid surface through an enzyme-linked reagent.

The subject of assay [4] is male DBA/1J mice. Put plainly: Collagen-Induced Arthritis (CIA) Study. It is filed as in vivo. The conditions noted are these: orally twice daily. The procedure: Collagen-induced arthritis is an animal model of rheumatoid arthritis used to evaluate the efficacy of test compounds. CIA was induced at Washington Biotechnology Inc. (Baltimore) in male DBA/1J mice (Jackson Laboratories) by subcutaneous injection at the base of the tail with 50 μl of a bovine collagen/complete Freund's adjuvant emulsion. After 21 days, the mice were further boosted by a further subcutaneous injection of 50 μl of a collagen/incomplete Freund's adjuvant emulsion. For treatment, compound or vehicle (2% DMSO, 10% HP-β-CD in MilliQ water) was given orally twice daily at various doses selected from 3, 10, 30 mg/kg, beginning at the day of CIA induction (Prophylactic setting), or after disease initiation (at day 27, therapeutic setting). Treatment lasted until day 41, and the animals were scored three times weekly. Each paw was scored and the sum of all four scores was recorded as the Arthritic Index (AI). The maximum possible AI was 16.0=no visible effects of arthritis; 1=edema and/or erythema of one digit; 2=edema and/or erythema of 2 joints; 3=edema and/or erythema of more than 2 joints; 4=severe arthritis of the entire paw and digits including limb deformation and ankylosis of the joint. The Arthritis Index for each treatment can be expressed as the mean score for each treatment group+/−S.E.M.

The test system of assay [5] is female C57BL/6 mice. Put plainly: Experimental Autoimmune Encephalomyelitis (EAE) Study. It is filed as in vivo. As to conditions: 10 and 30 mg/kg, orally twice daily, 25 days.

Each structure is given as a SMILES string.

As to `Fc1c(NCc2ccc(Cn3ccnc3)cc2)ncnc1N1CCCC1c1ccc(C(F)(F)F)cc1` (centres unmarked) [Example 94, 5-fluoro-N-[[4-(imidazol-1-ylmethyl)phenyl]methyl]-6-[2-[4-(trifluoromethyl)phenyl]pyrrolidin-1-yl]pyrimidin-4-amine], the IC50 in assay [1] is < 500 nM. Further, in assay [2], the “Gal4 activity range @ 0.1 μM (% inhibition)” value is recorded as >80 % inhibition and the “Gal4 activity range @ 1 μM (% inhibition)” value is listed as >80 % inhibition. Moreover, the inhibition (in general, the change of the read-out against control, counted positive when it falls) at 1 µM in assay [3] was > 80%.

Consider `NC(=O)Cc1ccc(CNc2ncnc(N3CCOC[C@@H]3c3ccc(C(F)(F)F)cc3)c2F)cc1` [Example 204, 2-[4-[[[5-fluoro-6-[(3S)-3-[4-(trifluoromethyl)phenyl]morpholin-4-yl]pyrimidin-4-yl]amino]methyl]phenyl]acetamide], for which, in assay [1], the IC50 was < 500 nM. Besides, the “CIA disease development, therapeutic setting” value in assay [4] (30 mg/kg, from day 27) is reported as “arrest disease development”. In assay [4] (10 and 30 mg/kg, from day of CIA induction), the “CIA disease severity, prophylactic setting” value is “significantly reduce disease severity”. Moreover, in assay [2], the “Gal4 activity range @ 0.1 μM (% inhibition)” value is >50 % inhibition and the “Gal4 activity range @ 1 μM (% inhibition)” value is >80 % inhibition. Also, in assay [5], the EAE clinical score result is “lower clinical score” and the “onset of EAE” value is “delay onset”.
